Here are results for 13 compounds from US7019135B2, “Anti-viral pyrimidine nucleoside analogues” (University College Cardiff Consultants Limited, priority 2000, dated 2006).

The nature of data set [1]: concentration required to reduce the cell number by 50%. Format: cell-based. To be noted: human, human embryonic lung cells; concentration reducing the cell number by 50%. On the procedure:
Each of the products of Examples 1 to 9 was tested in vitro in tissue cultures for toxicity and for potent antiviral actions with respect to cytomegalo virus (CMV). CC50/μM is the compound concentration required to reduce the cell number by 50%. Further details of the methodology employed can be found in McGuigan et al. J. Med. Chem., 1999, 42, 4479-4484.

In another data set the test system is CMV strain Davis. In words: CMV strain Davis induced cytopathicity in HEL cells. In kind it is cell-based, cytomegalo virus. The following applies: Human betaherpesvirus 5, 168 h, 50% reduction of virus induced cytopathicity, 7 days post infection. On the procedure:
Each of the products of Examples 1 to 9 was tested in vitro in tissue cultures for toxicity and for potent antiviral actions with respect to cytomegalo virus (CMV). EC50/μM CMV Davis is the drug concentration in μM required to reduce by 50% CMV strain Davis induced cytopathicity in human embryonic lung fibroblast (HEL) cells measured 7 days post infection compared to untreated control. Further details of the methodology employed can be found in McGuigan et al. J. Med. Chem., 1999, 42, 4479-4484.
For orientation: Damage to the host cells serves as the signal in cytopathic effect assays.

The subject of the next data set is cytomegalo virus (CMV). The data set is described as follows: anti-CMV activity in tissue culture, summary in words of the table. In kind it is cell-based. To be noted: for anti-CMV activity (in words): summary of the table data, comparison with Ganciclovir. On the procedure:
Each of the products of Examples 1 to 9 was tested in vitro in tissue cultures for toxicity and for potent antiviral actions with respect to cytomegalo virus (CMV). EC50/μM CMV-AD169 is the drug concentration in μM required to reduce by 50% CMV strain AD169 induced cytopathicity in human embryonic lung fibroblast (HEL) cells measured 7 days post infection compared to untreated control. EC50/μM CMV Davis is the drug concentration in μM required to reduce by 50% CMV strain Davis induced cytopathicity in human embryonic lung fibroblast (HEL) cells measured 7 days post infection compared to untreated control.

For another data set, the system named is CMV strain AD169. The data set is described as follows: CMV strain AD169 induced cytopathicity in HEL cells. Format: cell-based, cytomegalo virus. The following applies: Human betaherpesvirus 5, AD169, 168 h, 50% reduction of virus induced cytopathicity, 7 days post infection. On the procedure: Each of the products of Examples 1 to 9 was tested in vitro in tissue cultures for toxicity and for potent antiviral actions with respect to cytomegalo virus (CMV). EC50/μM CMV-AD169 is the drug concentration in μM required to reduce by 50% CMV strain AD169 induced cytopathicity in human embryonic lung fibroblast (HEL) cells measured 7 days post infection compared to untreated control. Further details of the methodology employed can be found in McGuigan et al. J. Med. Chem., 1999, 42, 4479-4484.

For data set [2], the system named is human embryonic lung cells. In words: minimum cytotoxic concentration to human embryonic lung cells. Format: cell-based. To be noted: for MCC/μM: minimum cytotoxic concentration, human embryonic lung cells; for toxicity (in words): summary of the table data. On the procedure: Each of the products of Examples 1 to 9 was tested in vitro in tissue cultures for toxicity and for potent antiviral actions with respect to cytomegalo virus (CMV). MCC/μM is the minimum cytotoxic concentration to human embryonic lung cells. Further details of the methodology employed can be found in McGuigan et al. J. Med. Chem., 1999, 42, 4479-4484.

Data set [3] deals with CMV. To be noted: said in WO 98/49177; cited from earlier work.
For a further data set, the system named is VZV YS strain. The data set is described as follows: VZV YS strain induced cytopathicity in HEL cells. Format: cell-based, Varicella zoster virus. To be noted: Human alphaherpesvirus 3, 168 h, 50% reduction of VZV induced cytopathicity, 7 days post infection. On the procedure:
(§1) The compound of Example 3 wherein R is -nC10H21 was tested to assess its potency against VZV. Employing the equivalent EC50 assay as set out above, namely a measurement of the drug concentration required to reduce by 50% the VZV induced cytopathicity in human embryonic fibroblast (HEL) measured 7 days post infection, a concentration of 40 μM was found with respect to VZV OKA strain and a concentration of 20 μM was measured with respect to VZV YS strain.

Another data set relates to VZV OKA strain. In words: VZV OKA strain induced cytopathicity in HEL cells. In kind it is cell-based, Varicella zoster virus. The following applies: Human alphaherpesvirus 3, HEL, 168 h, read-out: EC50 VZV OKA strain. On the procedure:
as §1

Another data set concerns VZV. To be noted: in vitro; Can. J. Chem. 74, 1609, 1996; cited from earlier work.
The subject of a further data set is HSV-2. To be noted: in vitro; Can. J. Chem. 74, 1609, 1996; cited from earlier work.
A further data set deals with HSV-1. The following applies: in vitro; Can. J. Chem. 74, 1609, 1996; cited from earlier work.
Data set [4] deals with CMV. The following applies: in vitro; Can. J. Chem. 74, 1609, 1996; cited from earlier work.
The subject of data set [5] is Varicella zoster virus (VZV). To be noted: said in WO 98/49177; cited from earlier work.

Entries after “also recorded” stand apart in the source; their conditions may differ.

In turn, `CCCCCCCCCCCc1cc2cn(C3CCC(CO)O3)c(=O)nc2o1` [Example 7, 3-[2′,3′-dideoxy-ribo-β-D-furanosyl]-6-undecyl-2,3-dihydrofuro[2,3-d]pyrimidin-2-one] registered a CC50 in data set [1] greater than 200 µM. The compound further registered an EC50 with CMV strain Davis of 1.2 µM. The “anti-CMV activity (in words)” value with cytomegalo virus (CMV) was “potent anti-CMV activity”. For the same compound, the EC50 in the data set with CMV strain AD169 is 1.4 µM. In [2], the MCC/μM was 50 µM; the “toxicity (in words)” value was “toxicity greater than any of the compounds of Examples 1, 3, 4, 5 and 6”.

In the case of `O=c1nc2oc(CCCCCCCCCCl)cc2cn1C1CC(O)C(CO)O1` (centres unmarked) [6-(9-chlorononyl)-3-(4-hydroxy-5-(hydroxymethyl)tetrahydro-2-furanyl)-2,3-dihydrofuro[2,3,-d] pyrimidin-2-one], the “anti-CMV activity (in words)” value in the data set on CMV [3] is listed as “demonstrate anti-CMV activity”.

In turn, `CCCCCCCCCc1cc2cn(C3CCC(CO)O3)c(=O)nc2o1` [Example 6, 3-[2′,3′-dideoxy-ribo-β-D-furanosyl]-6-nonyl-2,3-dihydrofuro[2,3-d]pyrimidin-2-one] yielded a CC50 in data set [1] greater than 200 µM. Further, the EC50 turned out to be 1.3 µM with CMV strain Davis and 1.2 µM in the data set with CMV strain AD169. The “anti-CMV activity (in words)” value in the data set with cytomegalo virus (CMV) is on record as “potent anti-CMV activity; also recorded: at least comparable to that of the known drug Ganciclovir”. In data set [2], this compound registered an MCC/μM of 200 µM. For the same compound, the “toxicity (in words)” value in data set [2] is on record as “acceptable level of toxicity”.

Regarding `CCCCCCCCCCc1cc2cn(C3CCC(CO)O3)c(=O)nc2o1` [Example 3, 3-[2′,3′-dideoxy-ribo-β-D-furanosyl]-6-decyl-2,3-dihydrofuro[2,3-d]pyrimidin-2-one], the EC50 with VZV YS strain stood at 20 µM; in the data set on VZV OKA strain, 40 µM; in the data set on CMV strain Davis, 3.2 µM; in the data set on CMV strain AD169 it was 2.6 µM. This compound showed a CC50 in [1] greater than 200 µM. Further, the “activity against CMV compared with VZV (in words)” value with cytomegalo virus (CMV) (CMV versus VZV EC50) was “substantially more active against CMV, than against VZV”. For the same compound, in the data set with cytomegalo virus (CMV), the “anti-CMV activity (in words)” value is recorded as “at least comparable to that of the known drug Ganciclovir”. Further, the MCC/μM in data set [2] is greater than 200 µM. In data set [2], the “toxicity (in words)” value is “acceptable level of toxicity”.

The compound `CCCCOCCCCCCCCCc1cc2cn(C3CCC(CO)O3)c(=O)nc2o1` [Example 8, 3-(2′-3′-Dideoxy-β-D-ribofuranosyl)-6-[9-butyloxynonyl]-2,3-dihydrofuro[2,3-d]pyrimidin-2-one] displayed a CC50 in data set [1] of 200 µM. In addition, in the data set on CMV strain Davis, the response was half-maximal at 1 µM (EC50). Further, the “anti-CMV activity (in words)” value in the data set on cytomegalo virus (CMV) is reported as “potent anti-CMV activity”. Further, in the data set on CMV strain AD169, the EC50 is 1.2 µM. Besides, in data set [2], the MCC/μM was 5 µM; the “toxicity (in words)” value was “toxicity greater than any of the compounds of Examples 1, 3, 4, 5 and 6”.

As to `Nc1nc(O)c2ncn(COC(CO)CO)c2n1` [Ganciclovir, reference compound], the EC50 with CMV strain Davis is 3.4 µM; in the data set on CMV strain AD169 it was 2.6 µM. For the same compound, in data set [2], the MCC/μM was greater than 150 µM.

In the case of `O=c1nc2occc2cn1C1CC(O)C(CO)O1` (centres unmarked), in the data set on VZV, the “activity against VZV (in words)” value is “inactive”. Besides, in the data set on HSV-2, the “activity against HSV-2 (in words)” value is “inactive”. Moreover, in the data set with HSV-1, the “activity against HSV-1 (in words)” value is “inactive”. Besides, the “activity against CMV (in words)” value in the data set with CMV [4] was “inactive”.

In [1], `CCCCCCCCCCCCCCc1cc2cn(C3CCC(CO)O3)c(=O)nc2o1` [Example 5, 3-[2′,3′-dideoxy-ribo-β-D-furanosyl]-6-tetradecyl-2,3-dihydrofuro[2,3-d]pyrimidin-2-one] returned a CC50 greater than 200 µM. In addition, the EC50 was 40 µM in the data set on CMV strain Davis and 25 µM in the data set with CMV strain AD169. For the same compound, the MCC/μM in data set [2] is 200 µM.

In the case of `CCCCCCCCc1cc2cn(C3CCC(CO)O3)c(=O)nc2o1` [Example 2, 3-[2′3′-dideoxy-ribo-β-D-furanosyl]-6-octyl-2,3-dihydrofuro[2,3-d]pyrimidin-2-one], in data set [1], the CC50 was 112 µM. In the data set with CMV strain Davis, this compound had an EC50 of 2.4 µM. In addition, the “anti-CMV activity (in words)” value in the data set on cytomegalo virus (CMV) is “potent anti-CMV activity”. The compound also yielded an EC50 in the data set with CMV strain AD169 of 1.5 µM. Besides, in data set [2], the MCC/μM stood at 20 µM; the “toxicity (in words)” value is “toxicity greater than any of the compounds of Examples 1, 3, 4, 5 and 6”.

For the compound `CCCCCCCCCCCCc1cc2cn(C3CCC(CO)O3)c(=O)nc2o1` [Example 4, 3-[2′,3′-dideoxy-ribo-β-D-furanosyl]-6-dodecyl-2,3-dihydrofuro[2,3-d]pyrimidin-2-one], the CC50 in data set [1] is greater than 200 µM. Also, the EC50 with CMV strain Davis came out at 5 µM; in the data set with CMV strain AD169, 3.7 µM. Moreover, in the data set on cytomegalo virus (CMV), the “anti-CMV activity (in words)” value is “at least comparable to that of the known drug Ganciclovir”. The same compound yielded an MCC/μM in data set [2] of 200 µM. In [2], the “toxicity (in words)” value is on record as “acceptable level of toxicity”.

For the compound `CCCCCCc1cc2cn(C3CCC(CO)O3)c(=O)nc2o1` [Example 1, 3-[2′,3′-dideoxy-ribo-β-D-furanosyl]-6-hexyl-2,3-dihydrofuro[2,3-d]pyrimidin-2-one], in data set [1], the CC50 turned out to be 143 µM. Besides, the EC50 in the data set with CMV strain Davis was greater than 50 µM; in the data set with CMV strain AD169 it was 32 µM. This compound also showed an MCC/μM in data set [2] of 200 µM.

For `O=c1nc2oc(CCCCCCCCCOCCCCCl)cc2cn1C1CCC(CO)O1` [Example 9, 3-(2′-3′-Dideoxy-β-D-ribofuranosyl)-6-[9-(4-chlorobutoxy)nonyl]-2,3-dihydrofuro[2,3-d]pyrimidin-2-one], in data set [1], the CC50 is greater than 200 µM. This compound showed an EC50 with CMV strain Davis of 1 µM. In addition, the “anti-CMV activity (in words)” value with cytomegalo virus (CMV) is listed as “potent anti-CMV activity”. This compound returned an EC50 in the data set with CMV strain AD169 of 2.6 µM. For the same compound, in data set [2], the MCC/μM was 20 µM; the “toxicity (in words)” value was “toxicity greater than any of the compounds of Examples 1, 3, 4, 5 and 6”.

Take `CCCCCCCCCCc1cc2cn([C@H]3C[C@H](O)[C@@H](CO)O3)c(=O)nc2o1` [3-(2′-deoxy-β-D-ribofuranosyl)-6-decyl-2,3-dihydrofuro[2,3-d]pyrimidin-2-one]: the “anti-Varicella zoster virus (VZV) activity (in words)” value in data set [5] is listed as “potent”.

For orientation: CC50 means the concentration at which the toxic effect on the cells reaches its halfway point. Low readings indicate greater toxicity to the cells, high ones lower toxicity to the cells. In general, EC50 refers to the midpoint of the concentration-response curve.
